One block for each compound: values may come before it.
Tests used:
[1] = Solubility in toluene; assay type: physicochemical
Source text: The solubility of the iodonium salts of the invention was compared with the solubility of the hydroxyl-bearing iodonium salts.

[2] = Miscibility with organopolysiloxanes containing epoxy groups; assay type: physicochemical
[3] = Tests relating to cationic photopolymerization (UV curing of coating)
Source text: In order to examine the activity of the compounds shown in Examples 1-4 in cationic photopolymerization, 98 parts of a cycloaliphatic epoxysilane having an epoxy value of 3.5% and a viscosity of 125 mPas were mixed with 2 parts of each photoinitiator.
The mixtures were then applied to a standard OPP film (30 μm) using a pilot-scale coating machine equipped with a five-roll applicator unit. The application weight was 0.5-1 g/m^2. The coatings were subsequently cured with a microwave-excited UV lamp (Fusion, 120 W/cm) at a web speed of 20 m/min.
Directly following passage under the UV lamp, it was determined whether the coatings have cured to a film which is no longer tacky.

[4] = Hydrolytic stability: time to formation of visible precipitates or crystals; assay type: physicochemical; conditions: time to formation of visible precipitates or crystals of hydrolytic cleavage product formula (XI)
Source text: The improved hydrolytic stability of the iodonium salts of the invention containing urethane groups may best be shown in comparison with the iodonium salt with the formula (XVI), containing Si—O—C bonds (see German Patent Application 19901531.7). [drawing 19]
Indicated is the time to the formation of visible precipitates or crystals of the hydrolytic cleavage product with the formula (XI): […]

solubility in toluol [1]: unrestricted solubility
SMILES: CCCCCCCCCCCCC(COc1ccc([I+]c2ccccc2)cc1)OC(=O)Nc1cccc(C(F)(F)F)c1 (stereo not drawn) [Formula (VII)]

SMILES: CCCCCCCCCCCCC(O)COc1ccc([I+]c2ccccc2)cc1 (stereo not drawn) [Formula (VIII)]
miscibility with organopolysiloxanes containing epoxy groups [2]: no miscibility
Appearance of the mixture ([3]; 2 parts photoinitiator in 98 parts cycloaliphatic epoxysilane (epoxy value 3.5%, 125 mPas)): cloudy,
Curing after the UV lamp ([3]; 2 parts photoinitiator, 0.5-1 g/m^2 on OPP film, UV lamp 120 W/cm, web speed 20 m/min, judged directly after lamp): unsatisfactory;
solubility in toluol [1]: insoluble

SMILES: CCCCCCCCCCCCC(O)COc1ccc([I+]c2ccccc2)cc1 (stereo not drawn) [Formula (XI)]
melting point: 91 °C
Solubility in toluene [1]: insoluble

Stability in 1-butanol (50% w/w) ([4]; 50% w/w in 1-butanol): 2 days
Stability in toluene (50% w/w) ([4]; 50% w/w in toluene): 21 days
SMILES: CCCCCCCCCCCCC(COc1ccc([I+]c2ccccc2)cc1)O[Si](C)(C)C (stereo not drawn) [Formula (XVI)]
